Experiment [1] deals with GLP-1 receptor (Homo sapiens, UniProt P43220). In words: HitHunter cAMP assay, GLP-1 receptor. It counts as cell-based. The following applies: read-out: Emax GLP-1R. In general terms: Cyclic AMP is a second messenger, typically raised through Gs and lowered through Gi signalling.
Experiment [2] concerns the target T1, GIP receptor (Homo sapiens, UniProt P48546).
T1 sequence (P48546 22-466): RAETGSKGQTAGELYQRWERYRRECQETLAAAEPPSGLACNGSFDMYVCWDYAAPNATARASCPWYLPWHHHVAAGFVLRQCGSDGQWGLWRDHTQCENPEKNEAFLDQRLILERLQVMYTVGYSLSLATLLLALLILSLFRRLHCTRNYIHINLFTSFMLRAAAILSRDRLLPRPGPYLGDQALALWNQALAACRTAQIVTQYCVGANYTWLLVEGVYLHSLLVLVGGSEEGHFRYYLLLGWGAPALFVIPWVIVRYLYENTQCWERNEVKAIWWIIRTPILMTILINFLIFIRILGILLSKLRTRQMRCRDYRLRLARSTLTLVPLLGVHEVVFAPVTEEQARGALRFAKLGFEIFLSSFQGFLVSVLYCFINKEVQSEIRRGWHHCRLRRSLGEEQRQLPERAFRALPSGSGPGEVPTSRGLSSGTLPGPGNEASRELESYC
The experiment is described as follows: HitHunter cAMP assay, GIP receptor. It is filed as cell-based. Conditions: read-out: Emax GIP-1R.

Where [3] appears, read: CHO cells, cAMP, normalized to maximum signal from GLP-1 (high) and DMSO (low).
Setting [4] is: CHO cells, cAMP, normalized to maximum signal from GIP (high) and DMSO (low).

Where two headings read alike, the source gives them in different places. *1 amine or outer side, *2 acyl side, *3 side chain or, on linkers, in order; H or OH if unused. Where a SMILES comes first, the peptide text is derived from it. Side-chain parts run from the residue outwards. [ ]: non-standard residue; d: D form. The star is where a group is joined. Isobutyryl(2-(3-CN-5-F-Ph)) = CC(C)(C(=O)*)c1cc(F)cc(C#N)c1; C20 diacid = O=C(O)CCCCCCCCCCCCCCCCCCC(=O)*; αMePhe(2-F) = C[C@](N)(Cc1ccccc1F)C(=O)O; γGlu = O=C(O)[C@H](CCC(=O)[*:2])N[*:1]; X27 = O=C1CC(C(=O)*)(c2ccccc2)CN1; X40 = CC(C)(C(=O)*)n1cc(Cl)cn1; X60 = O=C(C1(c2cccnc2)CCCC1)*; X83 = Cc1ccn(C(C)(C)C(=O)*)n1; NH(2-ClPh) = Clc1ccccc1N*; AEEA = NCCOCCOCC(=O)O; Aib = CC(C)(N)C(=O)O; CO = O=C([*:1])[*:2]; GABA = NCCCC(=O)O; βAla = NCCC(=O)O

Sequence of GLP-1 receptor (P43220 24-463): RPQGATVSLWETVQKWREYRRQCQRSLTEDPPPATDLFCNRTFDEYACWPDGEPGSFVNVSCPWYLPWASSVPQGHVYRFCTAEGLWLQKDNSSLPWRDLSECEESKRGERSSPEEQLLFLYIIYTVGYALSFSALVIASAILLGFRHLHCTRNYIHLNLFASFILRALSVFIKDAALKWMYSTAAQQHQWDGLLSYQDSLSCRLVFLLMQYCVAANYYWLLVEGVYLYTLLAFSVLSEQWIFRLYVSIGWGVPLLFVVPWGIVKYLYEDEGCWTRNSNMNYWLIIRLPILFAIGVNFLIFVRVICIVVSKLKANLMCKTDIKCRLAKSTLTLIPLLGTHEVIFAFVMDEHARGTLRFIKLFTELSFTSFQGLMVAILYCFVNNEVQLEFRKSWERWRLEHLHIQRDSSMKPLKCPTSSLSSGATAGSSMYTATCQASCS

The Emax is the greatest response seen or fitted, relative to the assay's reference. In the case of `CC[C@H](C)[C@H](NC(=O)[C@H](CC(C)C)NC(=O)[C@H](Cc1c[nH]c2ccccc12)NC(=O)[C@H](CCC(N)=O)NC(=O)[C@@H](NC(=O)[C@H](Cc1ccccc1)NC(=O)[C@H](C)NC(=O)[C@H](CCCCNC(=O)COCCOCCNC(=O)COCCOCCNC(=O)CC[C@H](NC(=O)CCCCCCCCCCCCCCCCCCC(=O)O)C(=O)O)NC(=O)[C@H](CCC(N)=O)NC(=O)[C@H](C)NC(=O)[C@@H](NC(=O)[C@H](CCCCN)NC(=O)[C@H](CC(=O)O)NC(=O)[C@H](CC(C)C)NC(=O)C(C)(C)NC(=O)[C@@H](NC(=O)[C@H](CO)NC(=O)[C@H](Cc1ccc(O)cc1)NC(=O)[C@H](CC(=O)O)NC(=O)[C@H](CO)NC(=O)[C@@H](NC(=O)[C@H](Cc1ccccc1)NC(=O)[C@@H](NC(=O)CNC(=O)[C@H](CCC(=O)O)NC(=O)CCNC(=O)C(C)(C)n1cc(Cl)cn1)[C@@H](C)O)[C@@H](C)O)[C@@H](C)CC)[C@@H](C)CC)C(C)C)C(=O)N[C@@H](C)C(=O)NCC(=O)NCC(=O)N1CCC[C@H]1C(=O)N[C@@H](CO)C(=O)N[C@@H](CO)C(=O)NCC(=O)N[C@@H](C)C(=O)N1CCC[C@H]1C(=O)N1CCC[C@H]1C(=O)N1CCC[C@H]1C(=O)N[C@@H](CO)C(N)=O` [Compound 247] ({X40-βAla}-EGTFTSDYSI[Aib]LDKIAQK([AEEA-AEEA-γGlu-C20 diacid])AFVQWLIAGGPSSGAPPPS-NH2; C-terminus assumed), the Emax in experiment [1] (setting [3]) was found to be 101%; in experiment [2] (setting [4]), 105%.
In the same order, the values of `CC[C@H](C)[C@H](NC(=O)[C@H](CC(C)C)NC(=O)[C@H](Cc1c[nH]c2ccccc12)NC(=O)[C@H](CCC(N)=O)NC(=O)[C@@H](NC(=O)[C@H](Cc1ccccc1)NC(=O)[C@H](C)NC(=O)[C@H](CCCCNC(=O)COCCOCCNC(=O)COCCOCCNC(=O)CC[C@H](NC(=O)CCCCCCCCCCCCCCCCCCC(=O)O)C(=O)O)NC(=O)[C@H](CCC(N)=O)NC(=O)[C@H](C)NC(=O)[C@@H](NC(=O)[C@H](CCCCN)NC(=O)[C@H](CC(=O)O)NC(=O)[C@H](CC(C)C)NC(=O)C(C)(C)NC(=O)[C@@H](NC(=O)[C@H](CO)NC(=O)[C@H](Cc1ccc(O)cc1)NC(=O)[C@H](CC(=O)O)NC(=O)[C@H](CO)NC(=O)[C@@H](NC(=O)[C@H](Cc1ccccc1)NC(=O)[C@@H](NC(=O)CNC(=O)[C@H](CCC(=O)O)NC(=O)CCNC(=O)C1(c2cccnc2)CCCC1)[C@@H](C)O)[C@@H](C)O)[C@@H](C)CC)[C@@H](C)CC)C(C)C)C(=O)N[C@@H](C)C(=O)NCC(N)=O` [Compound 227] ({X60-βAla}-EGTFTSDYSI[Aib]LDKIAQK([AEEA-AEEA-γGlu-C20 diacid])AFVQWLIAG-NH2; N-terminus and C-terminus assumed) are 102% and 112%.
With `CC[C@H](C)[C@H](NC(=O)[C@H](CC(C)C)NC(=O)[C@H](Cc1c[nH]c2ccccc12)NC(=O)[C@H](CCC(N)=O)NC(=O)[C@@H](NC(=O)[C@H](Cc1ccccc1)NC(=O)[C@H](C)NC(=O)[C@H](CCCCNC(=O)COCCOCCNC(=O)COCCOCCNC(=O)CC[C@H](NC(=O)CCCCCCCCCCCCCCCCCCC(=O)O)C(=O)O)NC(=O)[C@H](CCC(N)=O)NC(=O)[C@H](C)NC(=O)[C@@H](NC(=O)[C@H](CCCCN)NC(=O)[C@H](CC(=O)O)NC(=O)[C@H](CC(C)C)NC(=O)C(C)(C)NC(=O)[C@@H](NC(=O)[C@H](CO)NC(=O)[C@H](Cc1ccc(O)cc1)NC(=O)[C@H](CC(=O)O)NC(=O)[C@H](CO)NC(=O)[C@@H](NC(=O)[C@H](Cc1ccccc1)NC(=O)[C@@H](NC(=O)CNC(=O)[C@H](CCC(=O)O)NC(=O)CCCNC(=O)C1(c2ccccc2)CNC(=O)C1)[C@@H](C)O)[C@@H](C)O)[C@@H](C)CC)[C@@H](C)CC)C(C)C)C(=O)N[C@@H](C)C(=O)NCC(=O)NCC(=O)N1CCC[C@H]1C(=O)N[C@@H](CO)C(=O)N[C@@H](CO)C(=O)NCC(=O)N[C@@H](C)C(=O)N1CCC[C@H]1C(=O)N1CCC[C@H]1C(=O)N1CCC[C@H]1C(=O)N[C@@H](CO)C(N)=O` (stereo partly drawn) [Compound 249] ({X27-GABA}-EGTFTSDYSI[Aib]LDKIAQK([AEEA-AEEA-γGlu-C20 diacid])AFVQWLIAGGPSSGAPPPS-NH2; C-terminus assumed), the Emax in experiment [1] (setting [3]) came to 97%; in experiment [2] (setting [4]), 104%.
With `CC[C@H](C)[C@H](NC(=O)[C@H](CC(C)C)NC(=O)[C@H](Cc1c[nH]c2ccccc12)NC(=O)[C@H](CCC(N)=O)NC(=O)[C@@H](NC(=O)[C@H](Cc1ccccc1)NC(=O)[C@H](C)NC(=O)[C@H](CCCCNC(=O)COCCOCCNC(=O)COCCOCCNC(=O)CC[C@H](NC(=O)CCCCCCCCCCCCCCCCCCC(=O)O)C(=O)O)NC(=O)[C@H](CCC(N)=O)NC(=O)[C@H](C)NC(=O)[C@@H](NC(=O)[C@H](CCCCN)NC(=O)[C@H](CC(=O)O)NC(=O)[C@H](CC(C)C)NC(=O)C(C)(C)NC(=O)[C@@H](NC(=O)[C@H](CO)NC(=O)[C@H](Cc1ccc(O)cc1)NC(=O)[C@H](CC(=O)O)NC(=O)[C@H](CO)NC(=O)[C@@H](NC(=O)[C@H](Cc1ccccc1)NC(=O)[C@@H](NC(=O)CNC(=O)[C@H](CCC(=O)O)NC(=O)CCCNC(=O)C(C)(C)n1ccc(C)n1)[C@@H](C)O)[C@@H](C)O)[C@@H](C)CC)[C@@H](C)CC)C(C)C)C(=O)N[C@@H](C)C(=O)NCC(=O)NCC(=O)N1CCC[C@H]1C(=O)N[C@@H](CO)C(=O)N[C@@H](CO)C(=O)NCC(=O)N[C@@H](C)C(=O)N1CCC[C@H]1C(=O)N1CCC[C@H]1C(=O)N1CCC[C@H]1C(=O)N[C@@H](CO)C(N)=O` [Compound 252] ({X83-GABA}-EGTFTSDYSI[Aib]LDKIAQK([AEEA-AEEA-γGlu-C20 diacid])AFVQWLIAGGPSSGAPPPS-NH2; C-terminus assumed), the maximal response (Emax) in experiment [1] (setting [3]) was 90%; in experiment [2] (setting [4]), 100%.
With `CC[C@H](C)[C@H](NC(=O)[C@H](CC(C)C)NC(=O)[C@H](Cc1c[nH]c2ccccc12)NC(=O)[C@H](CCC(N)=O)NC(=O)[C@@H](NC(=O)[C@H](Cc1ccccc1)NC(=O)[C@H](C)NC(=O)[C@H](CCCCNC(=O)COCCOCCNC(=O)COCCOCCNC(=O)CC[C@H](NC(=O)CCCCCCCCCCCCCCCCCCC(=O)O)C(=O)O)NC(=O)[C@H](CCC(N)=O)NC(=O)[C@H](C)NC(=O)[C@@H](NC(=O)[C@H](CCCCN)NC(=O)[C@H](CC(=O)O)NC(=O)[C@H](CC(C)C)NC(=O)C(C)(C)NC(=O)[C@@H](NC(=O)[C@H](CO)NC(=O)[C@H](Cc1ccc(O)cc1)NC(=O)[C@H](CC(=O)O)NC(=O)[C@H](CO)NC(=O)[C@@H](NC(=O)[C@](C)(Cc1ccccc1F)NC(=O)[C@@H](NC(=O)CNC(=O)[C@H](CCC(=O)O)NC(=O)CCNC(=O)C(C)(C)c1cc(F)cc(C#N)c1)[C@@H](C)O)[C@@H](C)O)[C@@H](C)CC)[C@@H](C)CC)C(C)C)C(=O)N[C@@H](C)C(=O)NCC(N)=O` [Compound 228] ({Isobutyryl(2-(3-CN-5-F-Ph))-βAla}-EGT[αMePhe(2-F)]TSDYSI[Aib]LDKIAQK([AEEA-AEEA-γGlu-C20 diacid])AFVQWLIAG-NH2; N-terminus and C-terminus assumed), the Emax in experiment [1] (setting [3]) was determined as 100%; in experiment [2] (setting [4]) it was 105%.
Take `CC[C@H](C)[C@H](NC(=O)[C@H](CC(C)C)NC(=O)[C@H](Cc1c[nH]c2ccccc12)NC(=O)[C@H](CCC(N)=O)NC(=O)[C@@H](NC(=O)[C@H](Cc1ccccc1)NC(=O)[C@H](C)NC(=O)[C@H](CCCCNC(=O)COCCOCCNC(=O)COCCOCCNC(=O)CC[C@H](NC(=O)CCCCCCCCCCCCCCCCCCC(=O)O)C(=O)O)NC(=O)[C@H](CCC(N)=O)NC(=O)[C@H](C)NC(=O)[C@@H](NC(=O)[C@H](CCCCN)NC(=O)[C@H](CC(=O)O)NC(=O)[C@H](CC(C)C)NC(=O)C(C)(C)NC(=O)[C@@H](NC(=O)[C@H](CO)NC(=O)[C@H](Cc1ccc(O)cc1)NC(=O)[C@H](CC(=O)O)NC(=O)[C@H](CO)NC(=O)[C@@H](NC(=O)[C@H](Cc1ccccc1)NC(=O)[C@@H](NC(=O)CNC(=O)[C@H](CCC(=O)O)NC(=O)CCCNC(=O)CNC(=O)Nc1ccccc1Cl)[C@@H](C)O)[C@@H](C)O)[C@@H](C)CC)[C@@H](C)CC)C(C)C)C(=O)N[C@@H](C)C(=O)NCC(=O)NCC(=O)N1CCC[C@H]1C(=O)N[C@@H](CO)C(=O)N[C@@H](CO)C(=O)NCC(=O)N[C@@H](C)C(=O)N1CCC[C@H]1C(=O)N1CCC[C@H]1C(=O)N1CCC[C@H]1C(=O)N[C@@H](CO)C(N)=O` [Compound 259] ({NH(2-ClPh)-CO}-G[GABA]EGTFTSDYSI[Aib]LDKIAQK([AEEA-AEEA-γGlu-C20 diacid])AFVQWLIAGGPSSGAPPPS-NH2; C-terminus assumed): the maximum response (Emax) in experiment [1] (CHO) and in experiment [2] (CHO) was 103% each time.

(Values after US12281149B2, “Modulators of G-protein coupled receptors” (priority 2021, dated 2025).)
